# According to PubChem BioAssay (NCI):
# Several values for one entry are separate records, joined by “and”; a condition that tells them apart may be missing. Identical values can stand only once.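 A five-concentration, 48-hour dose response in 96-well plates underlies each endpoint, interpolated linearly between surrounding concentrations. GI50: concentration for 50% inhibition of growth. TGI: concentration producing complete growth inhibition.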
# What was measured:
# Assay in all cases: NCI-60 cell line screen, 48 h
# [1] = tested on: 786-0 renal
# [2] = tested on: HOP-92 NSCLC
# [3] = tested on: NCI-H23 lung
# [4] = tested on: OVCAR-8 ovarian
# [5] = tested on: RXF 393 renal
# [6] = tested on: SF-268 CNS
# [7] = tested on: SN12C renal
# [8] = tested on: U251 CNS
# [9] = tested on: UACC-257 melanoma
# [10] = tested on: UACC-62 melanoma
SMILES,GI50 [1],TGI [1],TGI [2],GI50 [3] [µM],TGI [3],GI50 [4] [µM],TGI [4],GI50 [5] [µM],TGI [5] [µM],GI50 [6] [µM],TGI [6],GI50 [7] [µM],TGI [7],GI50 [8] [µM],TGI [8],GI50 [9],TGI [9],GI50 [10] [µM],TGI [10],GI50 [2] [µM]
O=C(Nc1ccc(Oc2ccc(NC(=O)Nc3ccc([N+](=O)[O-])cc3)cc2)cc1)Nc1ccc([N+](=O)[O-])cc1,3.15 µM,> 36.2 µM,2.07 µM,1.23,30.8 µM,3.17,> 100 µM,2.94,> 24.4,3.1,> 100 µM,2.16,> 84.7 µM,2.16,12.5 µM,2.82 µM,> 26 µM,1.36,11.1 µM,
CCSc1ccc([C@@H]2[C@@H](N)C(=O)N2c2cc(OC)c(OC)c(OC)c2)cc1,0.08 µM,> 100 µM,> 100 µM,14.3,> 100 µM,0.176,> 100 µM,0.245,> 100,0.0872,> 100 µM,0.524,> 100 µM,0.061,> 100 µM,> 100 µM,> 100 µM,0.0451,> 100 µM,30.2
CC(C)=CC(=O)N[C@@H]1CC2CCC3C(CC[C@@]4(C)C3CC[C@@H]4C(C)N(C)C)[C@@]2(C)C[C@@H]1O (stereo partly specified),4.31 µM,14.2 µM,24.2 µM,5.06,39.1 µM,12.8,> 53.2 µM,3.12,12.2,2.71,12.2 µM,9.11,> 44.5 µM,3.97,22 µM,3.53 µM,11.2 µM,2.24,5.28 µM,2.37
ClC1c2ccccc2C2(c3ccccc3)OOC1(c1ccccc1)O2 (stereo unspecified),,2.98 µM,0.987 µM,,3.57 µM,,5.16 µM,,2.83,,4.19 µM,,2.9 µM,,3.59 µM,,3.65 µM,,3.66 µM,
CC(C)CN1CC(C)C(=O)NC1=O (stereo unspecified),,> 100 µM,> 100 µM,,> 100 µM,,> 100 µM,,> 100,,> 100 µM,,> 100 µM,,> 100 µM,,> 100 µM,,> 100 µM,
CCOc1cc2c(=O)oc3c(OC)ccc4ccc(c1OC)c2c43,,> 100 µM,> 100 µM,,> 100 µM,,79.3 µM,,> 100,,> 100 µM,,> 100 µM,,> 100 µM,,> 100 µM,,> 100 µM,
N#Cc1cc([N+](=O)[O-])ccc1NC(=O)C(=O)C(C(=O)c1ccc2ccccc2c1)C1OCc2ccccc21 (stereo unspecified),,14.7 µM,21.6 µM,,14.9 µM,,20.9 µM,,12.4,,47.7 µM,,46.5 µM,,16.8 µM,,28.2 µM,,36.4 µM,
CC(=O)Nc1ccc(-c2csc(Nc3cccc(-c4csc(-c5ccccc5)n4)c3)n2)cc1,21 µM,> 50 µM,> 50 µM,16.5,> 50 µM,15.6,> 50 µM,13.7,39.6,20,> 50 µM,8.2,27.6 µM,10.4,> 50 µM,19 µM,> 50 µM,4.7,14.9 µM,42.9
CN(C)CC1CCCCCC(Br)C1=O (stereo unspecified),,8.62 µM,22.2 µM,,29.6 µM,,32.8 µM,,32.6,,> 66.1 µM,,32.2 µM,,43 µM,,23 µM,,44 µM,
O=C(Cc1ccc(Nc2ccnc(C(F)(F)F)c2)cc1)Nc1cc(Cl)ccc1O,21.3 µM,58.6 µM,8.44 µM,2.86,13.3 µM,20.5,> 100 µM,25,52.4,8.39,31.5 µM,9.09,38.5 µM,6.46,23.6 µM,11.8 µM,49.8 µM,2.75,13.9 µM,1.96
COc1cc2cnc(-c3ccccc3)cc2cc1OC,,> 100 µM,65.9 µM,,56.7 µM,,> 100 µM,,> 100,,> 100 µM,,22.2 µM,,56.5 µM,,53.3 µM,,23.4 µM,
O=C(Oc1ccccc1Cl)c1ccccc1Nc1cccc(C(F)(F)F)c1,27.2 µM,96.6 µM,38.2 µM,19.8,73.7 µM,32,> 100 µM,13.9,43.9,20.5,60.6 µM,23.4,> 100 µM,23.6,58.2 µM,26.4 µM,76 µM,16.9,42.9 µM,5.81
CC#CC#C/C=C1\C=CC2(OC=CC2OC(C)=O)O1 (stereo unspecified),44.3 µM and 18.1 µM,> 100 µM and 33.6 µM,51.6 µM and 44.1 µM,,42.9 µM and 16.5 µM,,> 100 µM and 51.7 µM,,26.1,,85.4 µM and 46.1 µM,,36.5 µM and 31 µM,,43.1 µM and 33.2 µM,30.5 µM and 15 µM,> 100 µM and 33.6 µM,,52.3 µM and 33.2 µM,
CC[C@H](C)[C@H](NC(=O)NC(C)(C)C)C(=O)N(C)[C@H](C[C@@H](OC(C)=O)c1nc(C(=O)N[C@@H](Cc2ccccc2)C[C@H](C)C(=O)OC)cs1)C(C)C,0.609 µM,4.59 µM,> 25 µM,0.825,> 25 µM,0.936,> 25 µM,0.43,> 20.3,0.867,> 25 µM,1.07,> 25 µM,0.82,> 25 µM,4.67 µM,> 25 µM,0.172,> 25 µM,3
Nc1nccc2c1ccn2-c1cccc(NC(=O)c2ccc(N3CCOCC3)c(C(F)(F)F)c2)c1,0.905 µM,2.58 µM,3.23 µM,1.16,14.7 µM,1.34,10.3 µM,0.213,0.876,1.21,> 46.7 µM,1.91,> 50 µM,0.664,9.35 µM,2.08 µM,31.1 µM,0.429,6.12 µM,0.347
O=C1NC(=O)[C@@H](c2c[nH]c3ccccc23)[C@@H]1c1c[nH]c2ccccc12,> 25 µM,> 25 µM,> 25 µM,> 25,> 25 µM,> 25,> 25 µM,> 25,> 25,> 25,> 25 µM,> 25,> 25 µM,> 25,> 25 µM,> 25 µM,> 25 µM,> 25,> 25 µM,21.2
CCOC(=O)Cn1c(-c2nonc2NC(=O)c2ccccc2F)nc2ccccc21,2.58 µM,> 100 µM,67.9 µM,> 70.1,> 100 µM,0.739,> 60.1 µM,5.67,> 62,1.89,> 100 µM,26.2,> 100 µM,0.41,25.8 µM,8.78 µM,> 100 µM,5.86,> 100 µM,22.1
